Results: ChEMBL document CHEMBL1201862, “PubChem BioAssay data set” (2004)
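Cultured in 96-well plates, cells were exposed to test compound for 48 hours across five concentrations. GI50 = concentration required for 50% inhibition of growth.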 Calls of active or inactive are those of the source. No stated cut-off is given here; in the data, active = GI50 up to about 1.1 µM and inactive = higher.

How the values were obtained:
Assay in all cases: inhibition of tumour cell growth, NCI panel, 48 h
HT-29 = test system: HT-29
SK-MEL-2 = test system: SK-MEL-2
CAKI-1 = test system: CAKI-1
NCI-H23 = test system: NCI-H23
ACHN = test system: ACHN
BT-549 = test system: BT-549
COLO 205 = test system: COLO 205
MDA-MB-435 = test system: MDA-MB-435
U-251 = test system: U-251
LOX IMVI = test system: LOX IMVI
SK-OV-3 = test system: SK-OV-3
MDA-N = test system: MDA-N
OVCAR-3 = test system: OVCAR-3
SNB-75 = test system: SNB-75
M14 = test system: M14
SW-620 = test system: SW-620
Hs-578T = test system: Hs-578T
NCI/ADR-RES = test system: NCI/ADR-RES
OVCAR-5 = test system: OVCAR-5
SR = test system: SR
RXF 393 = test system: RXF 393
UO-31 = test system: UO-31
OVCAR-8 = test system: OVCAR-8
SNB-19 = test system: SNB-19
Malme-3M = test system: Malme-3M
HOP-92 = test system: HOP-92
SK-MEL-5 = test system: SK-MEL-5
UACC-257 = test system: UACC-257
NCI-H460 = test system: NCI-H460
EKVX = test system: EKVX
HCC 2998 = test system: HCC 2998
SF-539 = test system: SF-539
HOP-62 = test system: HOP-62
SN12C = test system: SN12C
MCF7 = test system: MCF7
RPMI-8226 = test system: RPMI-8226
DU-145 = test system: DU-145
UACC-62 = test system: UACC-62
786-0 = test system: 786-0
A549 = test system: A549
NCI-H522 = test system: NCI-H522
HCT-116 = test system: HCT-116
T47D = test system: T47D
SK-MEL-28 = test system: SK-MEL-28
SF-295 = test system: SF-295
IGROV-1 = test system: IGROV-1
MDA-MB-231 = test system: MDA-MB-231
A498 = test system: A498
CCRF-CEM = test system: CCRF-CEM
NCI-H226 = test system: NCI-H226
SF-268 = test system: SF-268
OVCAR-4 = test system: OVCAR-4
TK-10 = test system: TK-10
PC-3 = test system: PC-3
HL-60 = test system: HL-60
HCT-15 = test system: HCT-15
K562 = test system: K562
KM12 = test system: KM12
MOLT-4 = test system: MOLT-4

For `OCC(S)CS.[Bi]` (centres undefined), the GI50 (HT-29) was 19 µM (inactive), the GI50 (SK-MEL-2) was 12.6 µM (inactive) and the GI50 (CAKI-1) was 11.8 µM (inactive). For the same compound, the GI50 (NCI-H23) was 17.1 µM (inactive), the GI50 (ACHN) was 16.5 µM (inactive) and the GI50 (BT-549) was 9.79 µM (inactive). The GI50 (COLO 205) was 14.5 µM (inactive), the GI50 (MDA-MB-435) was 15.2 µM (inactive) and the GI50 (U-251) was 15.1 µM (inactive). For the same compound, the GI50 (LOX IMVI) was 20.7 µM (inactive), the GI50 (SK-OV-3) was 31.6 µM (inactive) and the GI50 (MDA-N) was 14.1 µM (inactive). For the same compound, the GI50 (OVCAR-3) was 10.8 µM (inactive), the GI50 (SNB-75) was 11.1 µM (inactive) and the GI50 (M14) was 8.36 µM (inactive). For the same compound, the GI50 (SW-620) was 16 µM (inactive), the GI50 (Hs-578T) was 15.9 µM (inactive) and the GI50 (NCI/ADR-RES) was 36.1 µM (inactive). The GI50 (OVCAR-5) was 19.9 µM (inactive), the GI50 (SR) was 4.06 µM (inactive) and the GI50 (RXF 393) was 10.7 µM (inactive). The GI50 (UO-31) was 16.7 µM (inactive), the GI50 (OVCAR-8) was 19.5 µM (inactive) and the GI50 (SNB-19) was 13.7 µM (inactive). The GI50 (Malme-3M) was 3.97 µM (inactive), the GI50 (HOP-92) was 23.7 µM (inactive) and the GI50 (SK-MEL-5) was 31.4 µM (inactive). The GI50 (UACC-257) was 13 µM (inactive), the GI50 (NCI-H460) was 13.4 µM (inactive) and the GI50 (EKVX) was 18 µM (inactive). For the same compound, the GI50 (HCC 2998) was 13.6 µM (inactive), the GI50 (SF-539) was 15.4 µM (inactive) and the GI50 (HOP-62) was 19.1 µM (inactive). For the same compound, the GI50 (SN12C) was 15.8 µM (inactive), the GI50 (MCF7) was 18.5 µM (inactive) and the GI50 (RPMI-8226) was 2.93 µM (inactive). The GI50 (DU-145) was 18.3 µM (inactive), the GI50 (UACC-62) was 17.9 µM (inactive) and the GI50 (786-0) was 11.2 µM (inactive). The GI50 (A549) was 28 µM (inactive), the GI50 (NCI-H522) was 1.58 µM (inactive) and the GI50 (HCT-116) was 17.7 µM (inactive). For the same compound, the GI50 (T47D) was 8.89 µM (inactive), the GI50 (SK-MEL-28) was 12 µM (inactive) and the GI50 (SF-295) was 48.2 µM (inactive). The GI50 (IGROV-1) was 18.3 µM (inactive), the GI50 (MDA-MB-231) was 24.4 µM (inactive) and the GI50 (A498) was 27 µM (inactive). The GI50 (CCRF-CEM) was 1.25 µM (inactive), the GI50 (NCI-H226) was 51.8 µM (inactive) and the GI50 (SF-268) was 5.43 µM (inactive). For the same compound, the GI50 (OVCAR-4) was 23.6 µM (inactive), the GI50 (TK-10) was 17.8 µM (inactive) and the GI50 (PC-3) was 13.1 µM (inactive). The GI50 (HL-60) was 16.2 µM (inactive), the GI50 (HCT-15) was 15 µM and the GI50 (K562) was 5.68 µM (inactive). The GI50 (KM12) was 19.1 µM (inactive).
For `CN(CCc1ccc(Cl)c(Cl)c1)CCN(C)CCN1CCCC1`, the GI50 (HT-29) was 2.38 µM (inactive), the GI50 (SK-MEL-2) was 3.33 µM (inactive) and the GI50 (CAKI-1) was 15.2 µM (inactive). The GI50 (NCI-H23) was 14.2 µM (inactive), the GI50 (ACHN) was 21.2 µM (inactive) and the GI50 (BT-549) was 16.7 µM (inactive). The GI50 (COLO 205) was 2.23 µM (inactive), the GI50 (MDA-MB-435) was 2.02 µM (inactive) and the GI50 (U-251) was 10.4 µM (inactive). The GI50 (LOX IMVI) was 4.76 µM (inactive), the GI50 (SK-OV-3) was 21.2 µM (inactive) and the GI50 (MDA-N) was 1.79 µM (inactive). The GI50 (OVCAR-3) was 23.3 µM (inactive), the GI50 (SNB-75) was 14.9 µM (inactive) and the GI50 (M14) was 4.86 µM (inactive). The GI50 (SW-620) was 12.1 µM (inactive), the GI50 (Hs-578T) was 17.5 µM (inactive) and the GI50 (NCI/ADR-RES) was 25.4 µM (inactive). The GI50 (MOLT-4) was 3.6 µM (inactive), the GI50 (OVCAR-5) was 18.6 µM (inactive) and the GI50 (SR) was 4.84 µM (inactive). For the same compound, the GI50 (RXF 393) was 10 µM (inactive), the GI50 (UO-31) was 5.15 µM (inactive) and the GI50 (OVCAR-8) was 21.7 µM (inactive). For the same compound, the GI50 (SNB-19) was 17.4 µM (inactive), the GI50 (Malme-3M) was 5.02 µM (inactive) and the GI50 (HOP-92) was 3.66 µM (inactive). The GI50 (SK-MEL-5) was 2.51 µM (inactive), the GI50 (UACC-257) was 2.36 µM (inactive) and the GI50 (NCI-H460) was 8.93 µM (inactive). For the same compound, the GI50 (EKVX) was 16.6 µM (inactive), the GI50 (HCC 2998) was 1.96 µM (inactive) and the GI50 (SF-539) was 4.08 µM (inactive). For the same compound, the GI50 (HOP-62) was 15.1 µM (inactive), the GI50 (SN12C) was 15.7 µM (inactive) and the GI50 (MCF7) was 12.1 µM (inactive). For the same compound, the GI50 (RPMI-8226) was 2.86 µM (inactive), the GI50 (DU-145) was 25.6 µM (inactive) and the GI50 (UACC-62) was 1.98 µM (inactive). The GI50 (786-0) was 8.99 µM (inactive), the GI50 (A549) was 10.5 µM (inactive) and the GI50 (NCI-H522) was 6.64 µM (inactive). The GI50 (HCT-116) was 5.62 µM (inactive), the GI50 (T47D) was 19.2 µM (inactive) and the GI50 (SK-MEL-28) was 1.64 µM (inactive). For the same compound, the GI50 (SF-295) was 16.5 µM (inactive), the GI50 (IGROV-1) was 17.7 µM (inactive) and the GI50 (MDA-MB-231) was 8.99 µM (inactive). The GI50 (A498) was 13.1 µM (inactive), the GI50 (CCRF-CEM) was 3.72 µM (inactive) and the GI50 (NCI-H226) was 20 µM (inactive). The GI50 (SF-268) was 6.5 µM (inactive), the GI50 (OVCAR-4) was 28.5 µM (inactive) and the GI50 (TK-10) was 13.3 µM (inactive). The GI50 (PC-3) was 14.5 µM (inactive), the GI50 (HL-60) was 13.4 µM (inactive) and the GI50 (HCT-15) was 14.5 µM. For the same compound, the GI50 (K562) was 2.25 µM (inactive) and the GI50 (KM12) was 10.9 µM (inactive).
`O=C(Cc1cc(=O)oc2cc(O)ccc12)N/N=C/c1ccc(N(CCCl)CCCl)cc1` was tested, and the GI50 (HT-29) was 22.2 µM (inactive), the GI50 (SK-MEL-2) was > 100 µM (inactive) and the GI50 (CAKI-1) was 12.7 µM (inactive). For the same compound, the GI50 (NCI-H23) was 22.3 µM (inactive), the GI50 (ACHN) was 15.8 µM (inactive) and the GI50 (BT-549) was 16.4 µM (inactive). The GI50 (COLO 205) was 29.2 µM (inactive), the GI50 (MDA-MB-435) was 19.8 µM (inactive) and the GI50 (U-251) was 17.4 µM (inactive). For the same compound, the GI50 (LOX IMVI) was 16.6 µM (inactive), the GI50 (MDA-N) was 23.4 µM (inactive) and the GI50 (OVCAR-3) was 18.2 µM (inactive). The GI50 (SNB-75) was 21.7 µM (inactive), the GI50 (M14) was 19.5 µM (inactive) and the GI50 (SW-620) was 34.1 µM (inactive). The GI50 (Hs-578T) was 26.1 µM (inactive), the GI50 (NCI/ADR-RES) was 84.1 µM (inactive) and the GI50 (MOLT-4) was 15.3 µM (inactive). For the same compound, the GI50 (OVCAR-5) was 25.6 µM (inactive), the GI50 (SR) was 14.2 µM (inactive) and the GI50 (RXF 393) was 16.6 µM (inactive). For the same compound, the GI50 (UO-31) was 22.2 µM (inactive), the GI50 (OVCAR-8) was 15.1 µM (inactive) and the GI50 (SNB-19) was 21.1 µM (inactive). For the same compound, the GI50 (Malme-3M) was 20.5 µM (inactive), the GI50 (HOP-92) was 20.8 µM (inactive) and the GI50 (SK-MEL-5) was 14.6 µM (inactive). For the same compound, the GI50 (UACC-257) was 22.1 µM (inactive), the GI50 (NCI-H460) was 13.8 µM (inactive) and the GI50 (EKVX) was 17.5 µM (inactive). For the same compound, the GI50 (HCC 2998) was > 100 µM (inactive), the GI50 (SF-539) was 18 µM (inactive) and the GI50 (HOP-62) was 23.7 µM (inactive). For the same compound, the GI50 (SN12C) was 17.7 µM (inactive), the GI50 (MCF7) was 14.8 µM (inactive) and the GI50 (RPMI-8226) was 16.4 µM (inactive). For the same compound, the GI50 (DU-145) was 19.6 µM (inactive), the GI50 (UACC-62) was 6.19 µM (inactive) and the GI50 (786-0) was 18.8 µM (inactive). The GI50 (A549) was 16.1 µM (inactive), the GI50 (NCI-H522) was 20.9 µM (inactive) and the GI50 (HCT-116) was 16.6 µM (inactive). For the same compound, the GI50 (T47D) was > 10 µM (inactive), the GI50 (SK-MEL-28) was 15.1 µM (inactive) and the GI50 (SF-295) was 18.1 µM (inactive). For the same compound, the GI50 (IGROV-1) was 18.8 µM (inactive), the GI50 (MDA-MB-231) was 18.5 µM (inactive) and the GI50 (A498) was 22.3 µM (inactive). The GI50 (CCRF-CEM) was 15 µM (inactive), the GI50 (NCI-H226) was 17.7 µM (inactive) and the GI50 (SF-268) was 13.4 µM (inactive). The GI50 (OVCAR-4) was 23.8 µM (inactive), the GI50 (PC-3) was 17.9 µM (inactive) and the GI50 (HL-60) was 14.5 µM (inactive). The GI50 (HCT-15) was over 100 µM, the GI50 (K562) was 23.5 µM (inactive) and the GI50 (KM12) was 32.4 µM (inactive).
